Laboratory results: ChEMBL document CHEMBL1157539, “Thousands of chemical starting points for antimalarial lead identification” (Nature, 2010)

System: Plasmodium falciparum
Assay: GSK_TCMDC: Inhibition of Plasmodium falciparum 3D7 in whole erythrocytes, using parasite LDH activity as an index of growth.
Assay type: functional, organism-based
Details: Plasmodium falciparum, 3D7

**Q.** `CCN(CC)CCN(Cc1ccc(-c2ccc(C(F)(F)F)cc2)cc1)C(=O)Cn1cc(CCCCc2cccc(F)c2F)c(=O)c2ccccc21` was tested. Which XC50 did it give?
**A.** Its XC50 is 883 nM.

**Q.** How did the XC50 turn out when `OCCNc1nc(Nc2ccccc2)nc2ccccc12` was run?
**A.** The XC50 was 128 nM.

**Q.** For `CCOC(=O)c1cc(C(=O)NCCCCN2CCC(c3ccc(CC)cc3OCC)CC2)ccc1-c1ccc(C(F)(F)F)cc1`, which XC50 is on record?
**A.** The XC50 was 615 nM.

**Q.** For `NC(=O)c1cccc(CN2Cc3ccccc3OC3(CCN(Cc4c[nH]c5cnccc45)CC3)C2)c1`, which XC50 is on record?
**A.** The XC50 was 1060 nM.

**Q.** How did the XC50 turn out when `CCc1ccc(O)c(-c2cc(C(=O)Nc3ccc(OC)c(Cl)c3)[nH]n2)c1` was run?
**A.** The XC50 was 870 nM.

**Q.** How did the XC50 turn out when `COc1cccc(COCC(O)CN(CCc2ccccn2)C(=O)c2ccccc2F)c1` (centres undefined) was run?
**A.** Its XC50 is 825 nM.

**Q.** `Cc1[nH]c(C)c(-c2ccc(-c3ccc(OC(F)(F)F)cc3)cc2)c(=O)c1Cl` was tested. Which XC50 did it give?
**A.** The XC50 was 35.4 nM.

**Q.** For `O=C(NCCN1Cc2ccccc2C1=O)c1ccc(Oc2ccc(C(=O)NCCN3Cc4ccccc4C3=O)cc2)cc1`, which XC50 is on record?
**A.** Its XC50 is 361 nM.

**Q.** How did the XC50 turn out when `Cc1cccc(N2CCN(C3CCC(NC(=O)c4cc5ccccc5[nH]4)CC3)CC2)c1C` (centres undefined) was run?
**A.** The XC50 was 609 nM.

**Q.** How did the XC50 turn out when `COC(=O)c1ccc(OCC(C)NCC(O)c2cccc(C(F)(F)F)c2)cc1` (centres undefined) was run?
**A.** Its XC50 is 838 nM.

**Q.** With `COc1ccc(OCc2ccccn2)c(C2CCN(CCCCNC(=O)c3ccc(NC(=O)c4ccc(Cl)cc4)cc3)CC2)c1` as the molecule, how does the XC50 read?
**A.** The XC50 was 764 nM.

**Q.** With `CC(C)CN(C)Cc1ccc(-c2ccc(-c3nc4ccccc4[nH]3)s2)cc1` as the molecule, how does the XC50 read?
**A.** The XC50 was 752 nM.

**Q.** For `N#Cc1ccc(CCNc2nccc(-c3cccc(CN4CCNCC4)c3)n2)cc1`, which XC50 is on record?
**A.** Its XC50 is 1250 nM.

**Q.** `CCC(c1ccccc1)c1nn2c(-c3cccs3)nnc2s1` (centres undefined) was tested. Which XC50 did it give?
**A.** Its XC50 is 167 nM.

**Q.** How did the XC50 turn out when `COc1ccc2nccc([C@@H](O)CN3CCC(NCCOc4ccc(F)cc4F)CC3)c2c1` was run?
**A.** Its XC50 is 141 nM.

**Q.** With `O=C(N[C@@H](Cc1ccccc1)C(=O)NC1CCCc2ccccc21)c1ccc(O)c(-c2cccc(C(F)(F)F)c2)c1` (some centres undefined) as the molecule, how does the XC50 read?
**A.** Its XC50 is 1000 nM.

**Q.** `C=C[C@H]1CN2CC[C@H]1C[C@H]2[C@H](O)c1cc(/C=C/c2ccc(F)cc2)nc2ccc(OC)cc12` was tested. Which XC50 did it give?
**A.** The XC50 was 34.2 nM.

**Q.** For `CC(=O)Nc1ccc(OCCCN(Cc2ccccc2C(F)(F)F)c2ccc(C(F)(F)F)c(C#N)c2)c(Cl)c1`, which XC50 is on record?
**A.** The XC50 was 1450 nM.

**Q.** For `CCCN1CCN(CCCCNc2c3ccccc3nc3ccccc23)CC1`, which XC50 is on record?
**A.** The XC50 was 409 nM.

**Q.** With `O=C(NCc1cccc(C(F)(F)F)c1)[C@@H]1CCCN1C(=O)c1ccc(O)c(-c2ccc(Cl)c(Cl)c2)c1` as the molecule, how does the XC50 read?
**A.** The XC50 was 787 nM.

**Q.** With `CCOc1ccc2[nH]c(C)cc(=NN=Cc3ccccc3Cl)c2c1` as the molecule, how does the XC50 read?
**A.** Its XC50 is 191 nM.

**Q.** With `COc1c(C2CCN(CCCCNC(=O)c3cc(-c4ccc(Cl)cc4)sc3C)CC2)ccc2c1CCCC2` as the molecule, how does the XC50 read?
**A.** The XC50 was 629 nM.

**Q.** With `Cc1cccc(-c2cccc(CNc3nc(NCCc4ccc(O)cc4)nc(N4CCNCC4)n3)c2)c1` as the molecule, how does the XC50 read?
**A.** The XC50 was 1190 nM.

**Q.** With `CNCCNCc1cccc(-c2cccc(-c3nc4cccc(C)c4[nH]3)c2)c1` as the molecule, how does the XC50 read?
**A.** Its XC50 is 766 nM.

**Q.** With `O=C(/C=C/c1ccc(Cl)c(Cl)c1)NCCCCCN1CCCN(C(=O)Nc2cccc(C(F)(F)F)c2)CC1` as the molecule, how does the XC50 read?
**A.** The XC50 was 866 nM.

**Q.** With `CC(C)COc1ccc(Cl)cc1Cc1ccc(-c2nc3ccc(Br)cc3[nH]2)o1` as the molecule, how does the XC50 read?
**A.** The XC50 was 1400 nM.

**Q.** With `CC(=O)N1CCC(C(=O)Nc2ccc(-c3cccc(-c4nc5cccc(C)c5[nH]4)c3)cc2)CC1` as the molecule, how does the XC50 read?
**A.** Its XC50 is 313 nM.

**Q.** Which XC50 does the source give for `CCNc1cc(C(=O)N[C@@H](Cc2ccco2)[C@H](O)CNC2CCCCC2)cc(N2CCCCS2(=O)=O)c1` here?
**A.** Its XC50 is 1010 nM.

**Q.** With `CCNC(=O)Nc1ccc(-c2cnc(N)c(-c3nc4ccc(OC)cc4[nH]3)c2)cc1` as the molecule, how does the XC50 read?
**A.** The XC50 was 499 nM.

**Q.** With `OCCCCCCNc1ccnc2[nH]c3ccc(I)cc3c12` as the molecule, how does the XC50 read?
**A.** Its XC50 is 1070 nM.

**Q.** With `O=C(Nc1ccc2c(c1)CCC2)c1ccc(N2CCN(c3ccncc3)CC2)cc1` as the molecule, how does the XC50 read?
**A.** The XC50 was 1130 nM.

**Q.** How did the XC50 turn out when `CCOc1c(Cl)cc(Cl)cc1CNCCCNc1nc2ccccc2[nH]1` was run?
**A.** Its XC50 is 831 nM.

**Q.** Which XC50 does the source give for `c1cc(CNc2ncc(-c3ccsc3)c(-c3nccs3)n2)ccn1` here?
**A.** Its XC50 is 358 nM.

**Q.** How did the XC50 turn out when `CCOc1cc(CC)ccc1C1CCN(CCCCNC(=O)c2ccc(NC(=O)c3ccc(Cl)cc3)cc2)CC1` was run?
**A.** The XC50 was 743 nM.

**Q.** `O=C(Nc1ccc(Br)cc1)c1cc(Br)ccc1NS(=O)(=O)c1ccc(C(F)(F)F)cc1` was tested. Which XC50 did it give?
**A.** Its XC50 is 180 nM.

**Q.** How did the XC50 turn out when `Cc1cc(O)c(-c2cc(C(=O)Nc3cccnc3)[nH]n2)cc1C` was run?
**A.** The XC50 was 772 nM.

**Q.** How did the XC50 turn out when `CN(C)CCN1CCN(CCCN2c3ccccc3Sc3ccc(C(F)(F)F)cc32)CC1` was run?
**A.** Its XC50 is 762 nM.

**Q.** How did the XC50 turn out when `O=C(C=Cc1cccs1)N(CCCn1ccnc1)c1nc2ccc(F)cc2s1` was run?
**A.** The XC50 was 1600 nM.

**Q.** How did the XC50 turn out when `COc1ccc(-n2nc(C(=O)NCc3ccccc3OC)c3ccccc3c2=O)cc1` was run?
**A.** Its XC50 is 217 nM.

**Q.** Which XC50 does the source give for `CCC(C)c1cccc(C(C)CC)c1OCCCON1C(N)=NC(N)=NC1(C)C` (centres undefined) here?
**A.** The XC50 was 20 nM.

**Q.** `CC1(C)[C@H]2CC[C@@H](CNc3nc(NCCc4c[nH]cn4)nc(NCc4cc(F)ccc4F)n3)[C@@H]1C2` was tested. Which XC50 did it give?
**A.** The XC50 was 311 nM.

**Q.** With `CCCCN(C(=O)c1ccccc1Cl)c1nnc(-c2ccccc2C)s1` as the molecule, how does the XC50 read?
**A.** Its XC50 is 1020 nM.

**Q.** How did the XC50 turn out when `Cc1nnsc1C(=O)Nc1cccc(-c2ccc(-c3nc4cc(F)ccc4[nH]3)cc2)c1` was run?
**A.** The XC50 was 96.2 nM.

**Q.** How did the XC50 turn out when `COc1ccc2nccc([C@@H](O)CN3CCC(NCCOc4cccc(C(F)(F)F)c4)CC3)c2c1` was run?
**A.** The XC50 was 159 nM.

**Q.** `O=C(N[C@@H](Cc1ccccc1)C(=O)NCCN1CCCCC1)c1ccc(O)c(-c2ccc(Cl)c(Cl)c2)c1` was tested. Which XC50 did it give?
**A.** Its XC50 is 1520 nM.

**Q.** With `CC(C)Cn1cc(C2CCN(CCN3CCC(CNC(=O)c4ccc(-c5ccc(C(F)(F)F)cc5)cc4)CC3)CC2)c2ccccc21` as the molecule, how does the XC50 read?
**A.** Its XC50 is 753 nM.

**Q.** For `COc1ccc(-c2cccc(NC(=O)c3ccc(C#N)cc3)c2)cc1CN(C)CCN(C)C`, which XC50 is on record?
**A.** Its XC50 is 74.7 nM.

**Q.** With `CCN(CCS(C)(=O)=O)Cc1ccc(-c2ccc3ncnc(Nc4ccc(OCc5cccc(F)c5)c(Cl)c4)c3c2)o1` as the molecule, how does the XC50 read?
**A.** Its XC50 is 608 nM.

**Q.** `Oc1ccc(CCNc2nc(N/N=C/C=C/c3ccc(Cl)cc3)nc(N3CCNCC3)n2)cc1` was tested. Which XC50 did it give?
**A.** The XC50 was 779 nM.

**Q.** For `C=C1C[C@@H](n2cnc3c(NC(=O)c4ccccc4)ncnc32)[C@@H](F)[C@@H]1OC(c1ccccc1)(c1ccccc1)c1ccccc1`, which XC50 is on record?
**A.** Its XC50 is 145 nM.

**Q.** With `COc1ccc(NC(=O)c2ccc3[nH]c(-c4ccc(Cl)cc4)cc3c2)cc1OCCN(C)C` as the molecule, how does the XC50 read?
**A.** The XC50 was 813 nM.

**Q.** How did the XC50 turn out when `CC(C)Cn1c2ccccc2c2nc3nc(N)nc(N)c3nc21` was run?
**A.** Its XC50 is 725 nM.

**Q.** `CN1CCN(c2cc(-c3ccncc3)nc(-c3cccnc3)n2)CC1` was tested. Which XC50 did it give?
**A.** The XC50 was 809 nM.

**Q.** How did the XC50 turn out when `CCCCCCCSc1ccc(CC(C)NCC(O)c2cccc(Cl)c2)cc1` (centres undefined) was run?
**A.** The XC50 was 178 nM.

**Q.** `CCCCNC(=O)[C@H](Cc1ccccc1)NC(=O)c1ccc(O)c(-c2ccc(Cl)c(Cl)c2)c1` was tested. Which XC50 did it give?
**A.** The XC50 was 527 nM.

**Q.** For `COc1ccc(C(=O)C2CC2CN2CC=C(c3c[nH]c4cccc(Br)c34)CC2)cc1` (centres undefined), which XC50 is on record?
**A.** Its XC50 is 935 nM.

**Q.** With `COc1ccccc1-c1cc(C(=O)N2CCN(S(=O)(=O)c3ccc(C)cc3)CC2)[nH]n1` as the molecule, how does the XC50 read?
**A.** Its XC50 is 1160 nM.

**Q.** `Cc1cc(OCCCN2CCCCC2)ccc1NC(=O)COc1ccc(Cl)cc1C(=O)c1cc(Cl)cc(C#N)c1` was tested. Which XC50 did it give?
**A.** Its XC50 is 892 nM.

**Q.** For `COc1ccc(-c2cccc(NC(=O)c3cccc(C#N)c3)c2)cc1CN(C)CCO`, which XC50 is on record?
**A.** Its XC50 is 823 nM.

**Q.** `CCOc1ccccc1C(=O)Nc1cccc(-c2nc3ncccn3c2C)c1` was tested. Which XC50 did it give?
**A.** The XC50 was 846 nM.

**Q.** Which XC50 does the source give for `CNCCNCc1cccc(-c2ccc(-c3nc4cc(C(F)(F)F)ccc4[nH]3)cc2)c1` here?
**A.** Its XC50 is 693 nM.

**Q.** For `CC1CCC(C[C@@H](C(=O)N[C@H](C(=O)Nc2nccs2)[C@@H](C)O)[C@H](CCC(F)(F)F)N(O)C=O)CC1` (some centres undefined), which XC50 is on record?
**A.** The XC50 was 535 nM.

**Q.** `O=C(Nc1ccc(N2CCCCC2)c(Cl)c1)c1ccco1` was tested. Which XC50 did it give?
**A.** The XC50 was 409 nM.

**Q.** With `COCCNCc1ccc(-c2ccccc2CNC2CCN(Cc3ccccc3)CC2)cc1` as the molecule, how does the XC50 read?
**A.** The XC50 was 975 nM.

**Q.** With `CCCCC(NCC)c1ccc(OCCOc2ccc(C(CCCC)NCC)cc2)cc1` (centres undefined) as the molecule, how does the XC50 read?
**A.** The XC50 was 930 nM.

**Q.** Which XC50 does the source give for `OCC1CCN(Cc2ccc(-c3cccc(-c4nc5cc(C(F)(F)F)ccc5[nH]4)c3)cc2)CC1` here?
**A.** Its XC50 is 483 nM.

**Q.** For `O=C(NCCC1CCN(CCc2c[nH]c3ccccc23)CC1)Nc1ccc(Cl)c(Cl)c1`, which XC50 is on record?
**A.** Its XC50 is 834 nM.

**Q.** Which XC50 does the source give for `NCC1(c2nc(-c3ccc(Cl)c(O)c3)c(-c3ccncc3)[nH]2)CCCCC1` here?
**A.** Its XC50 is 744 nM.

**Q.** With `COc1ccc(CCC(C)N2CC(N)C(c3cn(C)c4cnccc34)C2)cc1` (centres undefined) as the molecule, how does the XC50 read?
**A.** The XC50 was 1360 nM.
